Patent US8735609B2, “Bryostatin analogues, synthetic methods and uses” (The Board of Trustees of the Leland Stanford Junior …, priority 2007, dated 2014)

Assays:
UACC-62 = test: NCI human cancer cell line growth inhibition: UACC-62 (Melanoma); type: cell-based
786-0 = test: NCI human cancer cell line growth inhibition: 786-0 (Renal); type: cell-based
HS 578T = test: NCI human cancer cell line growth inhibition: HS 578T (Breast); type: cell-based
RXF-393 = test: NCI human cancer cell line growth inhibition: RXF-393 (Renal); type: cell-based
MDA-MB-435 = test: NCI human cancer cell line growth inhibition: MDA-MB-435 (Breast); type: cell-based
NCI-H23 = type: cell-based, human; details: NCI-H23, NSC Lung
SK-OV-3 = test: NCI human cancer cell line growth inhibition: SK-OV-3 (Ovarian); type: cell-based
NCI/ADR-RES = type: cell-based, human; details: Breast
MCF7 = test: NCI human cancer cell line growth inhibition: MCF7 (Breast); type: cell-based
OVCAR-3 = test: NCI human cancer cell line growth inhibition: OVCAR-3 (Ovarian); type: cell-based
K-562 = test: NCI human cancer cell line growth inhibition: K-562 (Leukemia); type: cell-based
SF-539 = test: NCI human cancer cell line growth inhibition: SF-539 (CNS); type: cell-based
PC-3 = test: NCI human cancer cell line growth inhibition: PC-3 (Prostate); type: cell-based
EKVX = test: NCI human cancer cell line growth inhibition: EKVX (NSC Lung); type: cell-based
HCT-15 = test: NCI human cancer cell line growth inhibition: HCT-15 (Colon); type: cell-based
HOP-62 = test: NCI human cancer cell line growth inhibition: HOP-62 (NSC Lung); type: cell-based
MDA-N = test: NCI human cancer cell line growth inhibition: MDA-N (Breast); type: cell-based
HCT-116 = test: NCI human cancer cell line growth inhibition: HCT-116 (Colon); type: cell-based
IGROVI = test: NCI human cancer cell line growth inhibition: IGROVI (Ovarian); type: cell-based
CAKI-1 = test: NCI human cancer cell line growth inhibition: CAKI-1 (Renal); type: cell-based
COLO 205 = test: NCI human cancer cell line growth inhibition: COLO 205 (Colon); type: cell-based
SK-MEL-2 = test: NCI human cancer cell line growth inhibition: SK-MEL-2 (Melanoma); type: cell-based
UACC-257 = test: NCI human cancer cell line growth inhibition: UACC-257 (Melanoma); type: cell-based
MDA-MB-231/ATCC = test: NCI human cancer cell line growth inhibition: MDA-MB-231/ATCC (Breast); type: cell-based
KM12 = test: NCI human cancer cell line growth inhibition: KM12 (Colon); type: cell-based
MI4 = test: NCI human cancer cell line growth inhibition: MI4 (Melanoma); type: cell-based
SF-268 = test: NCI human cancer cell line growth inhibition: SF-268 (CNS); type: cell-based
RPMI-8226 = test: NCI human cancer cell line growth inhibition: RPMI-8226 (Leukemia); type: cell-based
LOX IMVI = test: NCI human cancer cell line growth inhibition: LOX IMVI (Melanoma); type: cell-based
SK-MEL-5 = test: NCI human cancer cell line growth inhibition: SK-MEL-5 (Melanoma); type: cell-based
SNB-75 = test: NCI human cancer cell line growth inhibition: SNB-75 (CNS); type: cell-based
OVCAR-5 = test: NCI human cancer cell line growth inhibition: OVCAR-5 (Ovarian); type: cell-based
A498 = test: NCI human cancer cell line growth inhibition: A498 (Renal); type: cell-based
SNB-19 = test: NCI human cancer cell line growth inhibition: SNB-19 (CNS); type: cell-based
HCC-2998 = test: NCI human cancer cell line growth inhibition: HCC-2998 (Colon); type: cell-based
MALME-3M = test: NCI human cancer cell line growth inhibition: MALME-3M (Melanoma); type: cell-based
U251 = test: NCI human cancer cell line growth inhibition: U251 (CNS); type: cell-based
SN12C = test: NCI human cancer cell line growth inhibition: SN12C (Renal); type: cell-based
HOP-92 = test: NCI human cancer cell line growth inhibition: HOP-92 (NSC Lung); type: cell-based
T-47D = test: NCI human cancer cell line growth inhibition: T-47D (Breast); type: cell-based
SR = test: NCI human cancer cell line growth inhibition: SR (Leukemia); type: cell-based
HL-60(TB) = test: cells; type: cell-based, human
MOLT-4 = test: NCI human cancer cell line growth inhibition: MOLT-4 (Leukemia); type: cell-based
CCRF-CEM = test: NCI human cancer cell line growth inhibition: CCRF-CEM (Leukemia); type: cell-based
BT-549 = test: NCI human cancer cell line growth inhibition: BT-549 (Breast); type: cell-based
DU-145 = test: NCI human cancer cell line growth inhibition: DU-145 (Prostate); type: cell-based
SK-MEL-28 = test: NCI human cancer cell line growth inhibition: SK-MEL-28 (Melanoma); type: cell-based
TK-10 = test: NCI human cancer cell line growth inhibition: TK-10 (Renal); type: cell-based
A549/ATCC = test: NCI human cancer cell line growth inhibition: A549/ATCC (NSC Lung); type: cell-based
NCI-H522 = type: cell-based, human; details: NCI-H522, NSC Lung
OVCAR-8 = test: NCI human cancer cell line growth inhibition: OVCAR-8 (Ovarian); type: cell-based
HT29 = test: NCI human cancer cell line growth inhibition: HT29 (Colon); type: cell-based
OVCAR-4 = test: NCI human cancer cell line growth inhibition: OVCAR-4 (Ovarian); type: cell-based
SW-620 = test: NCI human cancer cell line growth inhibition: SW-620 (Colon); type: cell-based
NCI-H460 = type: cell-based, human; details: NCI-H460, NSC Lung
ACHN = test: NCI human cancer cell line growth inhibition: ACHN (Renal); type: cell-based
NCI-H226 = type: cell-based, human; details: NCI-H226, NSC Lung
UO-31 = test: NCI human cancer cell line growth inhibition: UO-31 (Renal); type: cell-based
SF-295 = test: NCI human cancer cell line growth inhibition: SF-295 (CNS); type: cell-based

SMILES: CCC/C=C/C=C/C(=O)O[C@H]1/C(=C/C(=O)OC)C[C@H]2C[C@H]([C@@H](C)O)OC(=O)C[C@H](O)C[C@@H]3C[C@H](OC(C)=O)C(C)(C)[C@](O)(C[C@@H]4C/C(=C/C(=O)OC)C[C@H](/C=C/C(C)(C)[C@]1(O)O2)O4)O3 [Bryo-1, Bryostatin-1, reference compound]
- Growth inhibition (GI50) (UACC-62): −5.30 log of molar concentration
- Growth inhibition (GI50) (786-0): −5.20 log of molar concentration
- Growth inhibition (GI50) (HS 578T): −5.2 log of molar concentration
- Growth inhibition (GI50) (RXF-393): −5.30 log of molar concentration
- Growth inhibition (GI50) (MDA-MB-435): −5.10 log of molar concentration
- Growth inhibition (GI50) (NCI-H23): >−5 log of molar concentration
- Growth inhibition (GI50) (SK-OV-3): −5.10 log of molar concentration
- Growth inhibition (GI50) (NCI/ADR-RES): >−5 log of molar concentration
- Growth inhibition (GI50) (MCF7): −5.20 log of molar concentration
- Growth inhibition (GI50) (OVCAR-3): −5.10 log of molar concentration
- Growth inhibition (GI50) (K-562): −5.40 log of molar concentration
- Growth inhibition (GI50) (SF-539): >−5 log of molar concentration
- Growth inhibition (GI50) (PC-3): −5.30 log of molar concentration
- Growth inhibition (GI50) (EKVX): −5.30 log of molar concentration
- Growth inhibition (GI50) (HCT-15): >−5 log of molar concentration
- Growth inhibition (GI50) (HOP-62): >−5 log of molar concentration
- Growth inhibition (GI50) (MDA-N): −5.10 log of molar concentration
- Growth inhibition (GI50) (HCT-116): −5.30 log of molar concentration
- Growth inhibition (GI50) (IGROVI): −5.30 log of molar concentration
- Growth inhibition (GI50) (CAKI-1): −5.40 log of molar concentration
- Growth inhibition (GI50) (COLO 205): −5.40 log of molar concentration
- Growth inhibition (GI50) (SK-MEL-2): −5.20 log of molar concentration
- Growth inhibition (GI50) (UACC-257): −5.10 log of molar concentration
- Growth inhibition (GI50) (MDA-MB-231/ATCC): −5.20 log of molar concentration
- Growth inhibition (GI50) (KM12): −5.20 log of molar concentration
- Growth inhibition (GI50) (MI4): >−5 log of molar concentration
- Growth inhibition (GI50) (SF-268): −5.10 log of molar concentration
- Growth inhibition (GI50) (RPMI-8226): >−5 log of molar concentration
- Growth inhibition (GI50) (LOX IMVI): −5.10 log of molar concentration
- Growth inhibition (GI50) (SK-MEL-5): −5.70 log of molar concentration
- Growth inhibition (GI50) (SNB-75): −5.50 log of molar concentration
- Growth inhibition (GI50) (OVCAR-5): >−5 log of molar concentration
- Growth inhibition (GI50) (A498): >−5 log of molar concentration
- Growth inhibition (GI50) (SNB-19): >−5 log of molar concentration
- Growth inhibition (GI50) (HCC-2998): −5.30 log of molar concentration
- Growth inhibition (GI50) (MALME-3M): −5.20 log of molar concentration
- Growth inhibition (GI50) (U251): −5.10 log of molar concentration
- Growth inhibition (GI50) (SN12C): −5.10 log of molar concentration
- Growth inhibition (GI50) (HOP-92): −5.30 log of molar concentration
- Growth inhibition (GI50) (T-47D): −5.20 log of molar concentration
- Growth inhibition (GI50) (SR): >−5 log of molar concentration
- Growth inhibition (GI50) (HL-60(TB)): −5.70 log of molar concentration
- Growth inhibition (GI50) (MOLT-4): −5.50 log of molar concentration
- Growth inhibition (GI50) (CCRF-CEM): −5.30 log of molar concentration
- Growth inhibition (GI50) (BT-549): −5.10 log of molar concentration
- Growth inhibition (GI50) (DU-145): >−5 log of molar concentration
- Growth inhibition (GI50) (SK-MEL-28): −5.10 log of molar concentration
- Growth inhibition (GI50) (TK-10): >−5 log of molar concentration
- Growth inhibition (GI50) (A549/ATCC): −5.20 log of molar concentration
- Growth inhibition (GI50) (NCI-H522): >−5 log of molar concentration
- Growth inhibition (GI50) (OVCAR-8): −5.10 log of molar concentration
- Growth inhibition (GI50) (HT29): −5.30 log of molar concentration
- Growth inhibition (GI50) (OVCAR-4): −5.50 log of molar concentration
- Growth inhibition (GI50) (SW-620): −5.50 log of molar concentration
- Growth inhibition (GI50) (NCI-H460): −5.60 log of molar concentration
- Growth inhibition (GI50) (ACHN): −5.50 log of molar concentration
- Growth inhibition (GI50) (NCI-H226): >−5 log of molar concentration
- Growth inhibition (GI50) (UO-31): −5.60 log of molar concentration
- Growth inhibition (GI50) (SF-295): −5.20 log of molar concentration
